Publication PMC3349995 (Journal of Natural Products, 2012)
Converted amounts (≈) assume the structure as drawn.

Tests used:
[1] = test system: methicillin-sensitive Staphylococcus aureus (MSSA, ATCC #29213); experiment: Antibacterial assay, MIC by dilution antimicrobial susceptibility test; assay type: cell-based; conditions: ATCC29213|MSSA, 18 h, read-out: MIC against MSSA
[2] = test system: methicillin-resistant Staphylococcus aureus (MRSA, ATCC #33591); experiment: as above; assay type: cell-based; conditions: ATCC33591|MRSA, 18 h, read-out: MIC against MRSA
[3] = qualitative statement from the literature; cited from earlier work

Compound | MIC [1] | MIC [2] | antibacterial activity (reported) [3]
CN[C@H](CC(C)C)C(=O)N[C@H]1C(=O)N[C@@H](CC(N)=O)C(=O)N[C@H]2C(=O)N[C@H]3C(=O)N[C@H](C(=O)N[C@H](C(=O)O)c4cc(O)cc(O)c4-c4cc3ccc4O)[C@H](O)c3ccc(c(Cl)c3)Oc3cc2cc(c3O[C@@H]2O[C@H](CO)[C@@H](O)[C@H](O)[C@H]2O[C@H]2C[C@](C)(N)[C@H](O)[C@H](C)O2)Oc2ccc(cc2Cl)[C@H]1O [Vancomycin] | 1 µg/mL (≈ 0.69 µM) | 1 µg/mL (≈ 0.69 µM) | –
peptidolipin NA | – | – | moderate antibacterial activity
